# Data: patent US6537744B1, “Use of biomarkers in saliva to evaluate the toxicity of agents and the function of tissues in both biomedical and environmental applications” (priority 1995, dated 2003)
# How the values were obtained:
# [1] = tested on: carboxylase in human saliva; assay: Inhibition of carboxylase in human saliva (p-nitrophenylvalerate hydrolysis, 400 nm); format: biochemical
# Experimental: The carboxylase activity in saliva samples is monitored by the hydrolysis of p-nitrophenylvalerate to the readily detectable p-nitrophenol. The concentration of p-nitrophenol in the sample is measured spectrophotometrically at 400 nm, and the value is calculated from p-nitrophenol standard curve (Table 3 and FIG. 4). Values for carboxylase activity in saliva (nmol. min-1 per mL of saliva) are presented in Tables 4-8 and showing in FIG. 5 and FIG. 6. The average specific activity for carboxylase in human saliva is about 47 nmol min^−1 per mL.
# The assay for carboxylase consists of 4 mL of tris-HCl buffer (pH 7.0) that contain 25 μL of p-nitrophenylvalerate (13.8 mg/mL of alcohol) and 50-500 μL of human saliva. […] In the inhibition study, the agent is incubated with saliva for about 15-20 minutes before the addition of p-nitrophenylvalerate. Organophosphate concentration is verified by gas chromatography using standard methods as described by Knaak et al. (1993).
# [2] = tested on: acetylcholinesterase in human saliva; assay: Inhibition of acetylcholinesterase in human saliva (acetylthiocholine iodide/DTNB, 405 nm); format: biochemical; settings: for % Activity / % Inhibition / Absorb. at 408 nm for 65 min. / Absorb. at 408 nm for 180 min. / nmol/min per mg: 0.6 mL saliva, 30 min preincubation at room temperature
# Experimental: The hydrolysis of acetylthiocholine iodide (an analog of acetylcholine iodides) by the saliva enzyme or enzymes is measured by generating the yellow 5-thio-2-nitrobenzoate with an absorbance maximum at 405 nm. The rate of change of absorbance is directly proportional to acetylcholinesterase activity. In this procedure, 0.1-1 mL of saliva (3.261 mg protein/mL) is incubated with 100 μL of acetylthiocholine iodide (0.018M) (lot #10H0653 Sigma) for 30-180 minute at 37° C. in 4.0 mL phosphate buffer (pH 7.8). After the incubation, a 0.2 mL of DTNB is added and the sample is read at 405 nm. The enzyme activity is calculated from glutathione standard curve (Table 9 and FIG. 9). Values for AChE activity in human saliva and enzyme kinetics are presented in Tables 10-14 and show in FIG. 10 through FIG. 14.
# The AChE specific activity in saliva is about 4 nmol minute^−1 per mL of saliva. […] The percent of enzyme inhibition by organophosphate is calculated and presented in Tables 13-14 and showing in FIG. 15.
# [3] = 1.0 ng/ml, Test #2, 0.2 mL saliva, 15 min preincubation at 37° C., 30 min with substrate
# [4] = 2.9 ng/ml, Test #2, 0.2 mL saliva, 15 min preincubation at 37° C., 30 min with substrate
# [5] = 8.6 ng/ml, Test #2, 0.2 mL saliva, 15 min preincubation at 37° C., 30 min with substrate
# [6] = 26 ng/mL, Test #1, 100 μL saliva, 15 min preincubation at 37° C.
# [7] = 52 ng/mL, Test #1, 100 μL saliva, 15 min preincubation at 37° C.
# [8] = 78 ng/mL, Test #1, 100 μL saliva, 15 min preincubation at 37° C.
# [9] = 156 ng/mL, Test #1, 100 μL saliva, 15 min preincubation at 37° C.
# [10] = 312 ng/mL, Test #1, 100 μL saliva, 15 min preincubation at 37° C.
# [11] = 625 ng/mL, Test #1, 100 μL saliva, 15 min preincubation at 37° C.
# [12] = 175 μg/ml, test #1, 200 μL saliva, 15 min preincubation, 37° C.
# [13] = .04 ng/ml, Test #2, 0.2 mL saliva, 15 min preincubation at 37° C., 30 min with substrate
# [14] = .1 ng/ml, Test #2, 0.2 mL saliva, 15 min preincubation at 37° C., 30 min with substrate
# [15] = .3 ng/ml, Test #2, 0.2 mL saliva, 15 min preincubation at 37° C., 30 min with substrate
# [16] = 2 μg of DNIO in 4.0 mL, Test #2, 200 μL saliva, 37° C.
structure (smiles),measurement,setting,value
"CCOP(N)(=O)Oc1ccccc1C(=O)OC(C)C (centres unmarked) [DNIO, des N-Isofenphos-oxon]",% Activity,[1]; [3],57%
same,% Inhibition,[1]; [3],43%
same,Absorb. at 400 nm,[1]; [3],.46
same,nmol/min per mg protein,[1]; [3],7.46 nmol/min per mg protein
same,% Activity,[1]; [4],50%
same,% Inhibition,[1]; [4],50%
same,Absorb. at 400 nm,[1]; [4],.40
same,nmol/min per mg protein,[1]; [4],6.55 nmol/min per mg protein
same,% Activity,[1]; [5],40%
same,% Inhibition,[1]; [5],60%
same,Absorb. at 400 nm,[1]; [5],.32
same,nmol/min per mg protein,[1]; [5],5.24 nmol/min per mg protein
same,% Activity,[1]; [6],3%
same,% Inhibition,[1]; [6],97%
same,Absorb. at 400 nm for 20 min.,[1]; [6],.02
same,Absorb. at 400 nm for 40 min.,[1]; [6],.03
same,Absorb. at 400 nm for 80 min,[1]; [6],.02
same,% Activity,[1]; [7],5%
same,% Inhibition,[1]; [7],95%
same,Absorb. at 400 nm for 20 min.,[1]; [7],.03
same,Absorb. at 400 nm for 40 min.,[1]; [7],.03
same,Absorb. at 400 nm for 80 min,[1]; [7],.03
same,% Activity,[1]; [8],3%
same,% Inhibition,[1]; [8],97%
same,Absorb. at 400 nm for 20 min.,[1]; [8],.02
same,Absorb. at 400 nm for 40 min.,[1]; [8],.02
same,Absorb. at 400 nm for 80 min,[1]; [8],.02
same,% Activity,[1]; [9],5%
same,% Inhibition,[1]; [9],95%
same,Absorb. at 400 nm for 20 min.,[1]; [9],.02
same,Absorb. at 400 nm for 40 min.,[1]; [9],.02
same,Absorb. at 400 nm for 80 min,[1]; [9],.03
same,% Activity,[1]; [10],13%
same,% Inhibition,[1]; [10],87%
same,Absorb. at 400 nm for 20 min.,[1]; [10],.04
same,Absorb. at 400 nm for 40 min.,[1]; [10],.06
same,Absorb. at 400 nm for 80 min,[1]; [10],.08
same,% Activity,[1]; [11],16%
same,% Inhibition,[1]; [11],84%
same,Absorb. at 400 nm for 20 min.,[1]; [11],.05
same,Absorb. at 400 nm for 40 min.,[1]; [11],.07
same,Absorb. at 400 nm for 80 min,[1]; [11],.10
same,% Act.,"[1]; 5 μg/mL, Test #2, 50 μL saliva, 20 min preincubation",35%
same,% Inhib.,[1]; [12],92%
same,Absorb. at 400 nm for 20 min.,[1]; [12],.16
same,Absorb. at 400 nm for 60 min.,[1]; [12],.55
same,% Activity,[1]; [13],94%
same,% Inhibition,[1]; [13],6%
same,Absorb. at 400 nm,[1]; [13],.75
same,nmol/min per mg protein,[1]; [13],12.31 nmol/min per mg protein
same,% Activity,[1]; [14],83%
same,% Inhibition,[1]; [14],17%
same,Absorb. at 400 nm,[1]; [14],.66
same,nmol/min per mg protein,[1]; [14],10.87 nmol/min per mg protein
same,% Activity,[1]; [15],78%
same,% Inhibition,[1]; [15],22%
same,Absorb. at 400 nm,[1]; [15],.62
same,nmol/min per mg protein,[1]; [15],10.21 nmol/min per mg protein
same,effective concentration for 50% inhibition EC50,"[1]; carboxylase, human saliva",3 ng/mL
same,inhibition of carboxylase (in words),[1]; human saliva,inhibited
same,% Activity,"[2]; 1.0 ng/mL, Test #2",68%
same,% Inhibition,"[2]; 1.0 ng/mL, Test #2",32%
same,Absorb. at 408 nm for 65 min.,"[2]; 1.0 ng/mL, Test #2",.17
same,Absorb. at 408 nm for 180 min.,"[2]; 1.0 ng/mL, Test #2",.21
same,nmol/min per mg,"[2]; 1.0 ng/mL, Test #2",.29 nmol/min per mg
same,% Activity,"[2]; 2.9 ng/mL, Test #2",45%
same,% Inhibition,"[2]; 2.9 ng/mL, Test #2",55%
same,Absorb. at 408 nm for 65 min.,"[2]; 2.9 ng/mL, Test #2",.16
same,Absorb. at 408 nm for 180 min.,"[2]; 2.9 ng/mL, Test #2",.14
same,nmol/min per mg,"[2]; 2.9 ng/mL, Test #2",.19 nmol/min per mg
same,% Activity,"[2]; 8.6 ng/mL, Test #2",26%
same,% Inhibition,"[2]; 8.6 ng/mL, Test #2",74%
same,Absorb. at 408 nm for 65 min.,"[2]; 8.6 ng/mL, Test #2",.11
same,Absorb. at 408 nm for 180 min.,"[2]; 8.6 ng/mL, Test #2",.08
same,nmol/min per mg,"[2]; 8.6 ng/mL, Test #2",.11 nmol/min per mg
same,% Activity,"[2]; 26 ng/mL, Test #2",19%
same,% Inhibition,"[2]; 26 ng/mL, Test #2",81%
same,Absorb. at 408 nm for 65 min.,"[2]; 26 ng/mL, Test #2",.11
same,Absorb. at 408 nm for 180 min.,"[2]; 26 ng/mL, Test #2",.06
same,nmol/min per mg,"[2]; 26 ng/mL, Test #2",.08 nmol/min per mg
same,% Activity,"[2]; 52 ng/mL, Test #2",13%
same,% Inhibition,"[2]; 52 ng/mL, Test #2",87%
same,Absorb. at 408 nm for 65 min.,"[2]; 52 ng/mL, Test #2",.09
same,Absorb. at 408 nm for 180 min.,"[2]; 52 ng/mL, Test #2",.04
same,nmol/min per mg,"[2]; 52 ng/mL, Test #2",.05 nmol/min per mg
same,% Activity,"[2]; 78 ng/mL, Test #2",13%
same,% Inhibition,"[2]; 78 ng/mL, Test #2",87%
same,Absorb. at 408 nm for 65 min.,"[2]; 78 ng/mL, Test #2",.10
same,Absorb. at 408 nm for 180 min.,"[2]; 78 ng/mL, Test #2",.04
same,nmol/min per mg,"[2]; 78 ng/mL, Test #2",.05 nmol/min per mg
same,% Activity,"[2]; 156 ng/mL, Test #2",13%
same,% Inhibition,"[2]; 156 ng/mL, Test #2",87%
same,Absorb. at 408 nm for 65 min.,"[2]; 156 ng/mL, Test #2",.10
same,Absorb. at 408 nm for 180 min.,"[2]; 156 ng/mL, Test #2",.04
same,nmol/min per mg,"[2]; 156 ng/mL, Test #2",.05 nmol/min per mg
same,% Activity,"[2]; 313 ng/mL, Test #2",10%
same,% Inhibition,"[2]; 313 ng/mL, Test #2",90%
same,Absorb. at 408 nm for 65 min.,"[2]; 313 ng/mL, Test #2",.07
same,Absorb. at 408 nm for 180 min.,"[2]; 313 ng/mL, Test #2",.03
same,nmol/min per mg,"[2]; 313 ng/mL, Test #2",.04 nmol/min per mg
same,% Activity,"[2]; 625 ng/mL, Test #2",10%
same,% Inhibition,"[2]; 625 ng/mL, Test #2",90%
same,Absorb. at 408 nm for 65 min.,"[2]; 625 ng/mL, Test #2",.07
same,Absorb. at 408 nm for 180 min.,"[2]; 625 ng/mL, Test #2",.03
same,nmol/min per mg,"[2]; 625 ng/mL, Test #2",.04 nmol/min per mg
same,Absorb. at 405 nm for 50 min.,[2]; [16],.14
same,Absorb. at 405 nm for 110 min.,[2]; [16],.10
same,Absorb. at 405 nm for 165 min.,[2]; [16],.11
same,Activity,"[2]; 2 μg of DNIO in 4.0 mL, Test #2, 200 μL saliva, 37° C. (no inhibitor: 1.14)",.22 nmol/min
same,% Activity,"[2]; .04 ng/mL, Test #2",94%
same,% Inhibition,"[2]; .04 ng/mL, Test #2",6%
same,Absorb. at 408 nm for 65 min.,"[2]; .04 ng/mL, Test #2",.17
same,Absorb. at 408 nm for 180 min.,"[2]; .04 ng/mL, Test #2",.29
same,nmol/min per mg,"[2]; .04 ng/mL, Test #2",.39 nmol/min per mg
same,% Activity,"[2]; .1 ng/mL, Test #2",90%
same,% Inhibition,"[2]; .1 ng/mL, Test #2",10%
same,Absorb. at 408 nm for 65 min.,"[2]; .1 ng/mL, Test #2",.14
same,Absorb. at 408 nm for 180 min.,"[2]; .1 ng/mL, Test #2",.28
same,nmol/min per mg,"[2]; .1 ng/mL, Test #2",.37 nmol/min per mg
same,% Activity,"[2]; .3 ng/mL, Test #2",84%
same,% Inhibition,"[2]; .3 ng/mL, Test #2",16%
same,Absorb. at 408 nm for 65 min.,"[2]; .3 ng/mL, Test #2",.21
same,Absorb. at 408 nm for 180 min.,"[2]; .3 ng/mL, Test #2",.26
same,nmol/min per mg,"[2]; .3 ng/mL, Test #2",.34 nmol/min per mg
same,Absorb. at 405 nm for 100 min.,"[2]; DNIO 4 μg in 4 mL, Test #1, 1.0 mL saliva, pH 7.8",.03
same,effective concentration for 50% inhibition EC50,"[2]; acetylcholinesterase, human saliva",3 ng/mL
same,inhibition of acetylcholinesterase (in words),[2]; human saliva,inhibited
same,concentration that produced 50% inhibition in AChE,[2]; saliva incubated with inhibitor about 15 minutes before substrate,3 ng per mL
